Values of other authors in US9945862B2, “Biomarkers for predicting and assessing responsiveness of thyroid and kidney cancer subjects to lenvatinib compounds” (Eisai R&D Management Co., Ltd., priority 2011, dated 2018).

Tested on: xenograft models of various tumors
Settings: by inhibiting angiogenesis; cited from earlier work

SMILES: COc1cc2nccc(Oc3ccc(NC(=O)NC4CC4)c(Cl)c3)c2cc1C(N)=O [Lenvatinib, 4-(3-chloro-4(cyclopropylaminocarbonyl)aminophenoxy)-7-methoxy-6-quinolinecarboxamide]
- Anti-tumor effect: potent anti-tumor effects
